Assay results from PMC7083880 (Nature Communications, 2020).

Molecular target: T1, FTSJ1 (Homo sapiens, UniProt Q9UET6)
T1 construct: host or cells: HeLa
T1 sequence (Q9UET6 1-329): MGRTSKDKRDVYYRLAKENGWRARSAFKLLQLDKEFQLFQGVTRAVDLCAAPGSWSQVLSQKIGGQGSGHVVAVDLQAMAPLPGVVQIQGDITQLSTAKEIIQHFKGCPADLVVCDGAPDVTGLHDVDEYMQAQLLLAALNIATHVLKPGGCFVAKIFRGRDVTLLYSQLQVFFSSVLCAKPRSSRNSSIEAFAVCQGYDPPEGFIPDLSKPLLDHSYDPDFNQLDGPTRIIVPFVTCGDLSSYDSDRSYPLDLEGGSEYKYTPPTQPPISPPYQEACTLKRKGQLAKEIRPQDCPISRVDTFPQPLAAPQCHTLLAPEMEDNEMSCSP
Assay: UGA readthrough luciferase assay with FTSJ1 overexpression
Type: cell-based
Description: Firefly luciferase from HEK293FT cells transfected with the Fluc-int-UGA construct was immunoprecipitated and digested with trypsin. The MS/MS spectrum of the peptide containing the PTC position and the sequence determination are shown. The upper red and blue sequences indicate the amino acids validated, respectively, by detection of Nter and Cter peptide fragments (b and y ion series). Peptide fragments y6 and y7 clearly identify tryptophan (W) at the PTC position. The black peaks correspond to non-attributed mass-to-charge ratio (m/z) values. […] Readthrough efficiency was determined by measuring luciferase activity in HeLa cells co-transfected with the firefly luciferase construct described in Fig. 1b and with increasing amounts of an expression vector for either FTSJ1 or CTU1 (0.5, 1, or 2 µg). The empty expression vector (E.v.) was used as control. […] The experiment was performed twice and the results of both experiments (Exp1 and Exp2) are shown. c Western blot analysis of FTSJ1 and CTU1. d 2′-O-methylation analysis of tRNA^Trp, tRNA^SER, and tRNA^GLN by RiboMethSeq. […] A molecular weight marker is indicated to the left of each gel. p-values (p) were calculated using Student’s t-test. Source data are provided as a Source Data file.
Among the enzymes modifying tRNAs liable to recognize a stop codon by extended wobbling, human FTSJ1 (TRM7 in yeast) exclusively modifies tRNAs involved in UGA readthrough. In addition to other tRNA targets, FTSJ1 methylates the cytosine at position 34 of tRNA^Trp. Inhibition of this modification could increase the capacity of tRNA^Trp to misdecode and recognize the UGA stop codon. […] FTSJ1 and CTU1 overexpression were assessed by western-blot analysis (Fig. 5c).

With `Nc1nc(N)c2[nH]cnc2n1` [DAP, 2,6-diaminopurine] the “luciferase activity, average” value (1µg FTSJ1, 0.39µM) was 825.625, the “luciferase activity, exp1” value (1µg FTSJ1, 0.39µM) was 545.5 and the “luciferase activity, exp1*1,5” value (1µg FTSJ1, 0.39µM) was 818.25. For the same molecule, the “luciferase activity, exp2” value (1µg FTSJ1, 0.39µM) was 833, the “luciferase activity, average” value (1µg FTSJ1, 0.78µM) was 1113.62 and the “luciferase activity, exp1” value (1µg FTSJ1, 0.78µM) was 667.5. The “luciferase activity, exp1*1,5” value (1µg FTSJ1, 0.78µM) was 1001.25, the “luciferase activity, exp2” value (1µg FTSJ1, 0.78µM) was 1226 and the “luciferase activity, average” value (1µg FTSJ1, 1.56µM) was 1547.75. The “luciferase activity, exp1” value (1µg FTSJ1, 1.56µM) was 877, the “luciferase activity, exp1*1,5” value (1µg FTSJ1, 1.56µM) was 1315.5 and the “luciferase activity, exp2” value (1µg FTSJ1, 1.56µM) was 1780. For the same molecule, the “luciferase activity, average” value (1µg FTSJ1, 6.25µM) was 5589, the “luciferase activity, exp1” value (1µg FTSJ1, 6.25µM) was 2330 and the “luciferase activity, exp1*1,5” value (1µg FTSJ1, 6.25µM) was 3495. For the same molecule, the “luciferase activity, exp2” value (1µg FTSJ1, 6.25µM) was 7683, the “luciferase activity, average” value (1µg FTSJ1, 25µM) was 18207.6 and the “luciferase activity, exp1” value (1µg FTSJ1, 25µM) was 6784.5. For the same molecule, the “luciferase activity, exp1*1,5” value (1µg FTSJ1, 25µM) was 10176.8, the “luciferase activity, exp2” value (1µg FTSJ1, 25µM) was 26238.5 and the “luciferase activity, average” value (1µg FTSJ1, 100µM) was 59739.5. The “luciferase activity, exp1” value (1µg FTSJ1, 100µM) was 25052, the “luciferase activity, exp1*1,5” value (1µg FTSJ1, 100µM) was 37578 and the “luciferase activity, exp2” value (1µg FTSJ1, 100µM) was 81901. For the same molecule, the “luciferase activity, average” value (1µg FTSJ1, 300µM) was 78923.5, the “luciferase activity, exp1” value (1µg FTSJ1, 300µM) was 30654 and the “luciferase activity, exp1*1,5” value (1µg FTSJ1, 300µM) was 45981. For the same molecule, the “luciferase activity, exp2” value (1µg FTSJ1, 300µM) was 111866, the “luciferase activity, average” value (1µg FTSJ1, 600µM) was 72130.6 and the “luciferase activity, exp1” value (1µg FTSJ1, 600µM) was 22687.5. For the same molecule, the “luciferase activity, exp1*1,5” value (1µg FTSJ1, 600µM) was 34031.2, the “luciferase activity, exp2” value (1µg FTSJ1, 600µM) was 110230 and the “luciferase activity, average” value (2µg FTSJ1, 0.39µM) was 748.25. For the same molecule, the “luciferase activity, exp1” value (2µg FTSJ1, 0.39µM) was 541, the “luciferase activity, exp1*1,5” value (2µg FTSJ1, 0.39µM) was 811.5 and the “luciferase activity, exp2” value (2µg FTSJ1, 0.39µM) was 685. The “luciferase activity, average” value (2µg FTSJ1, 0.78µM) was 885.625, the “luciferase activity, exp1” value (2µg FTSJ1, 0.78µM) was 619.5 and the “luciferase activity, exp1*1,5” value (2µg FTSJ1, 0.78µM) was 929.25. The “luciferase activity, exp2” value (2µg FTSJ1, 0.78µM) was 842, the “luciferase activity, average” value (2µg FTSJ1, 1.56µM) was 1120.12 and the “luciferase activity, exp1” value (2µg FTSJ1, 1.56µM) was 798.5. The “luciferase activity, exp1*1,5” value (2µg FTSJ1, 1.56µM) was 1197.75, the “luciferase activity, exp2” value (2µg FTSJ1, 1.56µM) was 1042.5 and the “luciferase activity, average” value (2µg FTSJ1, 6.25µM) was 2590.25. The “luciferase activity, exp1” value (2µg FTSJ1, 6.25µM) was 1505, the “luciferase activity, exp1*1,5” value (2µg FTSJ1, 6.25µM) was 2257.5 and the “luciferase activity, exp2” value (2µg FTSJ1, 6.25µM) was 2923. For the same molecule, the “luciferase activity, average” value (2µg FTSJ1, 25µM) was 6098.62, the “luciferase activity, exp1” value (2µg FTSJ1, 25µM) was 3067.5 and the “luciferase activity, exp1*1,5” value (2µg FTSJ1, 25µM) was 4601.25. For the same molecule, the “luciferase activity, exp2” value (2µg FTSJ1, 25µM) was 7596, the “luciferase activity, average” value (2µg FTSJ1, 100µM) was 13866.6 and the “luciferase activity, exp1” value (2µg FTSJ1, 100µM) was 8407.5. For the same molecule, the “luciferase activity, exp1*1,5” value (2µg FTSJ1, 100µM) was 12611.2, the “luciferase activity, exp2” value (2µg FTSJ1, 100µM) was 15122 and the “luciferase activity, average” value (2µg FTSJ1, 300µM) was 32953.2. The “luciferase activity, exp1” value (2µg FTSJ1, 300µM) was 15279, the “luciferase activity, exp1*1,5” value (2µg FTSJ1, 300µM) was 22918.5 and the “luciferase activity, exp2” value (2µg FTSJ1, 300µM) was 42988. The “luciferase activity, average” value (2µg FTSJ1, 600µM) was 35768.5, the “luciferase activity, exp1” value (2µg FTSJ1, 600µM) was 13538 and the “luciferase activity, exp1*1,5” value (2µg FTSJ1, 600µM) was 20307. The “luciferase activity, exp2” value (2µg FTSJ1, 600µM) was 51230 and the “Effect of FTSJ1 overexpression on DAP-promoted readthrough” value (HeLa, pFluc-int-UGA) was “strongly reduce DAP-promoted readthrough”.
